# Laboratory results taken from patent publication US20220409531A1, “PHARMACEUTICAL DELIVERY DEVICE AND METHOD OF MANUFACTURE” (University of Ulster, priority 2019, published 2022).
# Structures can show the parent of a compound that is named as a salt.
# Test: in vitro pharmaceutical release in simulated gastric fluid and simulated intestinal fluid
# Assay type: physicochemical
# Details: for cumulative release: from the capsule, simulated gastric fluid (pH=1.7) / simulated intestinal fluid (pH=7.4), time not stated; for release kinetics model fit: release from the fibres, in vitro
# Excerpt: FIGS. 7A and 7B illustrate the use of a pharmaceutical delivery device in accordance with an embodiment of the present invention to release two pharmaceuticals at the same time, each with their own unique release profile, in which FIG. 7A is a pharmaceutical release profile of APAP and CM from the various capsule configurations in a simulated gastric fluid (pH=1.7) and a simulated intestinal fluid (pH=7.4), and FIG. 7B is a detailed pharmaceutical release profile for APAP and CM from the composite capsule in the first two hours in a simulated gastric fluid (pH=1.7); and
# The capsule sample was immersed into a 100 ml beaker containing 50 mL PBS solution being stirred at 100 rpm. The whole separation process was finished in 169 s and the complete dissolution of PVP finished until 295 s. Also, regulation and controlled movement of each component pharmaceutical layer after separation was achieved by adding Fe3O4 nanoparticles and an external magnetic field. The separated capsule containing the printed outer PCL with embedded Fe3O4 nanoparticles and travel quickly from left to right under an applied external magnet field while the inner layer without any nanoparticles remained stationary (FIG. 5). This travel distance was covered within 3 s at a velocity of 6.7 mm/s. […] This allows for multifunctional uses of the capsule such as for targeted pharmaceutical release using an externally located magnet, and as a magnetic resonance tracer. […] The cumulative release of APAP was more than 90% while the cumulative release of CM was around 70%.
Structure (SMILES),cumulative release,release kinetics model fit,"release rate comparison (first 2 hours in simulated gastric fluid (pH=1.7), composite capsule)"
"CN(C)CCC(c1ccc(Cl)cc1)c1ccccn1 (centres unmarked) [CM, chlorpheniramine maleate]",around 70%,mostly fit the Higuchi model,–
"CC(=O)Nc1ccc(O)cc1 [APAP, paracetamol]",more than 90%,mostly fit the Higuchi model,faster than CM
